From article PMC11873037 (Nature Communications, 2025)
One block for each compound: values may come before it.

Legend:
[1] = molecular target: T1, ChREBPα (Rattus norvegicus, UniProt Q8VIP2); test: immunostaining, nuclear localization of ChREBPα in INS-1 cells; format: cell-based
T1 sequence (Q8VIP2 1-865): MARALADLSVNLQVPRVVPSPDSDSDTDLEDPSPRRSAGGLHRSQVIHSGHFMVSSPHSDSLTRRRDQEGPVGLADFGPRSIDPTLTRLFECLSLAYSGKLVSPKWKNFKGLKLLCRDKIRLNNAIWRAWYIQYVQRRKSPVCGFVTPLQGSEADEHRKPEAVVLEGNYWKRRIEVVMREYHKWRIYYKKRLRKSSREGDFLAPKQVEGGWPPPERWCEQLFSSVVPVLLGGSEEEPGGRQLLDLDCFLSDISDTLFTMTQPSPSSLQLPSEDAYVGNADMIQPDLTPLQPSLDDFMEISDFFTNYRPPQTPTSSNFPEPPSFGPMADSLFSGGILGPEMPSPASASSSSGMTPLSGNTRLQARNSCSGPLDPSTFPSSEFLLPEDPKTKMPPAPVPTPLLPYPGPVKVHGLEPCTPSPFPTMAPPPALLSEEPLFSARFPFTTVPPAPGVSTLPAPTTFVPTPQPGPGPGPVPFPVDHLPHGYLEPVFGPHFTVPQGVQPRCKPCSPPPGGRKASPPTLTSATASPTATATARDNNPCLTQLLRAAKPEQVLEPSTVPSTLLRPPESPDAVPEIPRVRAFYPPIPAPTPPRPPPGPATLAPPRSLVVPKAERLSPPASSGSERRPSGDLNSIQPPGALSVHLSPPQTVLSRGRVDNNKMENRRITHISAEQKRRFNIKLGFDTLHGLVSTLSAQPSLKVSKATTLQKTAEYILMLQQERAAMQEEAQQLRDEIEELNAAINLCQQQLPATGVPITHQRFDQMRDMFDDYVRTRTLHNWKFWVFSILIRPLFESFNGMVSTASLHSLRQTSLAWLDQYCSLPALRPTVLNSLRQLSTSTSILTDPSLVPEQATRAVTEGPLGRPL

[2] = molecular target: T2, ChREBPα/14-3-3β (Homo sapiens, UniProt P31946+Q9NP71); test: FA compound titration, stabilization of FITC-ChREBPα peptide/14-3-3β; format: binding; conditions: for EC50: EC50, FITC-ChREBPα peptide 10 nM, 14-3-3β 150 nM, mean ± SD, n = 2; for stabilization of the ChREBPα/14-3-3 PPI, in words: FA-based compound titrations
T2 sequence (P31946 1-246): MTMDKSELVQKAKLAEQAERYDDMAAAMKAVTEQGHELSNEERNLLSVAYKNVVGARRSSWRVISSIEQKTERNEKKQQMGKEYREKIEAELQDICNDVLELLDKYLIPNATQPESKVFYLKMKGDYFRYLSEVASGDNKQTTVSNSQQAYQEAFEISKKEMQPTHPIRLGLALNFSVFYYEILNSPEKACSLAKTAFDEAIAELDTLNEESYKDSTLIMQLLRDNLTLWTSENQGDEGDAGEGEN
T2 sequence (Q9NP71 117-142 limits assumed): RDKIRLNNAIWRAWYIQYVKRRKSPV

[3] = system: INS-1 cells; test: cell death in glucolipotoxic conditions; format: cell-based, rat; conditions: for cell death in glucolipotoxic conditions, dose response: 5 and 10 μM, 20 mM glucose+500 µM palmitate, 48 h
[4] = system: INS-1 cells; test: cytotoxicity in low glucose; format: cell-based, rat
[5] = system: INS; test: qPCR INS mRNA in human islets; format: cell-based; conditions: 10 µM 43, 24 h
[6] = system: ChREBPβ; test: immunostaining c-term ChREBP; format: cell-based, human; conditions: 48 h
[7] = system: INS-1 cells; test: calcium imaging; format: cell-based, rat
[8] = system: ChREBPα/all seven 14-3-3 isoforms; test: FA protein titrations, statement over all seven 14-3-3 isoforms; format: binding; conditions: 100 µM 43
[9] = system: ChREBPβ; test: qPCR ChREBPβ mRNA in human islets; format: cell-based; conditions: 10 µM 43, 24 h; high glucose or glucolipotoxicity
[10] = system: BRAF, CRAF, p65, USP8, ERα, Pin1, ExoS peptides/14-3-3β; test: FA selectivity studies, statement over all other client peptides; format: binding; conditions: up to 100 µM
[11] = molecular target: T2, ChREBPα/14-3-3β; test: biochemical
[12] = system: primary human islets; test: insulin secretion stimulation index in response to KCl; format: cell-based; conditions: 30 mM KCl
[13] = system: ALDH1A3; test: qPCR ALDH1A3 mRNA in human islets; format: cell-based
[14] = system: β-cell maturity markers or glucose sensing and processing genes; test: qPCR other β-cell maturity markers or glucose sensing and processing genes; format: cell-based, human; conditions: 10 µM 43, 24 h
[15] = system: PDX1; test: qPCR PDX1 mRNA in human islets; format: cell-based; conditions: 10 µM 43, 24 h
[16] = system: PDX1; test: immunostaining PDX1 protein in dispersed islets; format: cell-based, human; conditions: 48 h
[17] = molecular target: T3, ChREBP (Rattus norvegicus, UniProt Q8VIP2); test: CRISPR/Cas9 engineered INS-1 cells; format: cell-based; conditions: high glucose and glucolipotoxic conditions
T3 sequence (Q8VIP2 1-865): T1 sequence (Q8VIP2 1-865)

[18] = system: TAZ, ExoS, ERα, CRAF, ChREBP peptides/14-3-3 isoforms (γ, ζ, σ); format: binding; conditions: 100 µM 43
[19] = system: primary human islets; test: total insulin content; format: cell-based
[20] = system: primary human islets; test: glucose-stimulated insulin secretion; format: cell-based; conditions: pre-treated 24 h, high glucose
[21] = system: human TXNIP promoter; test: luciferase reporter driven by the human TXNIP promoter in INS-1 cells; format: cell-based, rat; conditions: 10 µM 43, 24 h
[22] = system: INS-1 cells; test: kinetics of cell proliferation, total cell numbers; format: cell-based, rat; conditions: 10 μM 43
[23] = system: dispersed human islet cells; test: β-cell death after adenoviral ChREBPβ overexpression or shRNA; format: cell-based; conditions: 10 μM 43
[24] = molecular target: T2, ChREBPα/14-3-3β; conditions: fit of 2D titration with thermodynamic equilibrium model; compound 0–500 µM
[25] = system: ChREBPα/14-3-3; test: proximity ligation assay ChREBPα and pan 14-3-3; format: cell-based, rat; conditions: high (20 mM) glucose
[26] = system: INS-1 cells; test: ATP/ADP measurements; format: cell-based, rat; conditions: 10 μM 43; high (20 mM) glucose
[27] = system: NFATC1/14-3-3; test: proximity ligation assay NFATC1 and pan 14-3-3; format: cell-based, rat; conditions: 10 μM 43; high (20 mM) glucose
[28] = system: human islets, β-cells; test: SPARKL assay, β-cell death in glucolipotoxicity; format: cell-based; conditions: 10 µM; 20 mM glucose+500 μM palmitate

Structure (SMILES): NC(=O)c1ncn([C@@H]2O[C@H](CO)[C@@H](O)[C@H]2O)c1N [AICAR, reference compound]
nuclear translocation of ChREBPα ([1]; 1 mM AICAR): translocation of ChREBPα is not blocked

EC50 [2]: 7.6 ± 0.5 µM | stabilization of the ChREBPα/14-3-3 PPI, in words [2]: increased the stabilization efficiency
Structure (SMILES): O=C(COc1ccccc1P(=O)(O)O)NCCc1ccc(OCc2ccccn2)cc1 [compound 9]

stabilization of the ChREBPα/14-3-3 PPI, in words [2]: increased the stabilization efficiency
Structure (SMILES): O=C(COc1ccccc1P(=O)(O)O)NCCc1ccc(OCc2cccnc2)cc1 [compound 10]

stabilization of the ChREBPα/14-3-3 PPI, in words [2]: increased the stabilization efficiency
Structure (SMILES): O=C(COc1ccccc1P(=O)(O)O)NCCc1ccc(OCc2ccncc2)cc1 [compound 11]

Structure (SMILES): O=C(NCCc1ccccc1)C(Oc1ccccc1P(=O)(O)O)c1ccccc1 (stereo not drawn) [compound 12]
Rescue from glucolipotoxicity [3]: nor rescued the cells from glucolipotoxicity | Cytotoxic in low [glucose] [4]: neither generally cytotoxic | Active in biochemical assays [2]: not active in the biochemical assay

EC50 [2]: 17.4 ± 3.2 µM
Structure (SMILES): O=C(COc1ccc(OP(=O)(O)O)cc1)NCCc1ccccc1 [compound 19]

stabilization of the ChREBPα/14-3-3 PPI, in words [2]: inactive
Structure (SMILES): O=C(COc1ccccc1B(O)O)NCCc1ccccc1 [compound 23]

stabilization of the ChREBPα/14-3-3 PPI, in words [2]: inactive
Structure (SMILES): NS(=O)(=O)c1ccccc1OCC(=O)NCCc1ccccc1 [compound 24]

Structure (SMILES): O=C(COc1ccccc1P(=O)(O)O)NCC(F)(F)c1cccc(F)c1 [compound 43]
INS mRNA downregulation (de-differentiation) in glucolipotoxicity [5]: this de-differentiation was prevented | upregulation of ChREBPβ at protein level [6]: prevented upregulation of ChREBPβ | calcium upregulation in response to glucose [7]: no effect | PPI stabilization with 14-3-3 isoforms [8]: PPI stabilization among all isoforms | upregulation of ChREBPβ at mRNA level [9]: prevented upregulation of ChREBPβ | effect on other 14-3-3 client peptides (selectivity) [10]: without affecting any other client peptide | Rescue from glucolipotoxicity [3]: protected the β-cells from glucolipotoxicity | glucolipotoxic cell death in INS-1 cells ([3]; 10 µM 43, kinetics over 72 h): prevented | cell death in glucolipotoxic conditions, dose response [3]: significant attenuation of cell death | Kd [11]: 162 µM | SI in response to KCl [12]: no effect | ALDH1A3 mRNA ([13]; high glucose or glucolipotoxicity): unaffected | ALDH1A3 mRNA ([13]; low glucose): significantly decreased | Cytotoxic in low [glucose] [4]: no cytotoxicity | Active in biochemical assays [2]: active in biochemical assays | other β-cell maturity markers or glucose sensing and processing genes [14]: unchanged | PDX1 mRNA downregulation (de-differentiation) in glucolipotoxicity [15]: this de-differentiation was prevented | nuclear translocation of ChREBPα ([1]; glucose + palmitate): preventing ChREBPα’s nuclear translocation | nuclear translocation of ChREBPα ([1]; high glucose): blocked the transient translocation of ChREBPα | PDX1 protein levels in glucolipotoxicity [16]: rescued | build up of nuclear ChREBPβ, in words [17]: prevents the built up of nuclear ChREBPβ | ChREBPα stabilization selectivity among 14-3-3 isoforms [18]: preserved | insulin content [19]: no effect | GSIS stimulation index, in words [20]: improved glucose-stimulated insulin secretion (GSIS) stimulation index (SI) | glucose response of the TXNIP gene [21]: prevents the glucose response of the TXNIP gene | glucose-stimulated proliferation [22]: prevented glucose-stimulated proliferation | protection from apoptosis due to overexpression of ChREBPβ [23]: unable to protect human islet cells from apoptosis | cooperativity factor (α) [24]: 72 | interaction between 14-3-3 and ChREBPα (PLA) [25]: remained unchanged | ATP/ADP ratio [26]: enhanced mitochondrial activity | 14-3-3 dissociation from NFATC1 (PLA) [27]: glucose promoted 14-3-3 dissociation from NFATC1 | β-cell death in glucolipotoxic conditions, in words [28]: remarkable decrease in β-cell death

Structure (SMILES): O=C(COc1ccccc1P(=O)(O)O)NCC(F)(F)c1ccc(F)c(F)c1 [compound 53]
effect on other 14-3-3 client peptides (selectivity) [10]: without affecting any other client peptide | Rescue from glucolipotoxicity [3]: protected the β-cells from glucolipotoxicity | cell death in glucolipotoxic conditions, dose response [3]: significant attenuation of cell death | Kd [11]: 110 µM | Cytotoxic in low [glucose] [4]: no cytotoxicity | Active in biochemical assays [2]: active in biochemical assays | cooperativity factor (α) [24]: 126 | β-cell death in glucolipotoxic conditions, in words [28]: remarkable decrease in β-cell death
